The source of these data is patent US20250177481A1, “SCO-spondin-derived polypeptides for enhancing synaptic transmission” (AXOLTIS PHARMA, priority 2021, published 2025).

For one assay, the system named is GluN2A. The assay is described as follows: GluN2A level in cortical samples of subchronic PCP mice (WES automated protein analysis). The class given is in vivo, Swiss CD-1 mice. The note with it: PCP + NX218 5 mg/kg D14; PCP alone 73.44; n=5. The method, then: PCP (or saline for control group) was administered at a dose of 0.2 mg/kg by subcutaneous injections twice daily for 12 days (day 0 to day 11).
Approximately 5 minutes after the test, mice were anaesthetized with 5% isoflurane oxygen mixture. Brains were extracted immediately, then the cortex of each hemisphere were collected. Right and left cortices were transferred into clean pre-labelled microtubes and the exact weight of each sample was recorded. Finally, samples were stored at −80° C. for further analysis.
Brain samples were lysed with a defined buffer lysis consisting of CelLyticMT reagent with 1% of protease and phosphatase inhibitor cocktail (60 μL per well). Lysates were processed at +4° C. and stored at −80° C. at the end of the experiment. For each sample, the quantity of proteins was determined using the micro kit BCA (Pierce). Briefly, lysates were centrifuged and diluted at 1/20 in PBS and mixed, in equal volume, with a micro BCA. After an incubation at 60° C. for 1 hour, the quantity of proteins was measured at 562 nm with a spectrophotometer Nanovue (GE Healthcare) and compared with the standard of Bovine Serum Albumin curve (BSA, Pierce).
Automated protein analysis were performed using the WES™ system (ProteinSimple®): […]
Each protein was evaluated independently. […] 5 samples (biological replicates) per condition were analyzed.

The test system of assay [1] is subchronic PCP-induced cognitive deficits in mice. The assay is described as follows: T-maze continuous alternation task in subchronic PCP mice. As to conditions: PCP alone 30.71, control 66.43, 5 mg/kg. The class given is in vivo, Swiss CD-1 mice. From the text: Phenycyclidine (PCP) is an antagonist of NMDA receptor, its administration in healthy humans produces schizophrenia-like symptoms, therefore PCP is often used to mimic schizophrenia in rodents. […] In addition, brain samples were collected shorlty after the T-Maze test to measure the levels of cerebral biomarkers involved in synaptic plasticity.
Sixty (60) male Swiss CD-1 mice were purchased from Janvier Labs (Le Genest-Saint-Isle, France) one week before the start of the study for acclimation. Mice were group-housed (6-8 mice per Eurostandard type Ill cage) and maintained in a room with controlled temperature (21-22° C.) under a reversed 12 h/12 h light-dark cycle (lights on: 5:[…]; lights off: 05:30 am) with food and water available ad libitum. The weight of mice ranged from 25.9 and 36.4 g. […]
Nicotine used as a positive control was administered at a dose of 0.4 mg/kg intraperitoneally 30 minutes prior to the T-maze trial
After administration of compounds at different timepoints all animals were tested for continuous alternation task in the T-Maze. The T-maze apparatus was made of gray Plexiglas with a main stem (55-cm long×10-cm wide×20-cm high) and two arms (30-cm long×10-cm wide×20-cm high) positioned at a 90-degree angle relative to the main stem. A start box (15-cm long×10-cm wide) was separated from the main stem by a guillotine door. Horizontal doors were also provided to close specific arms during the force choice alternation task. The experimental protocol consisted in one single session that started with 1 “forced-choice” trial, followed by 14 “free-choice” trials (Gerlai, 1998). In the first “forced-choice” trial, the mouse was confined 5 s in the start arm and then released while either the left or right goal arm was blocked by closing the sliding door. Then, it walked through the maze, eventually entered the open goal arm, and then returned to the start position. Immediately after the mouse came back to the start position, the left or right goal door was opened (i.e. the two goal doors were opened), and the mouse could choose freely between the left and right goal arms (first “free choice trial”). The mouse was considered as entered in the arm when it placed its four paws in the arm. The opposite goal door was then closed until the animal returned to the start arm. Then, a second “free choice trial” began by the opening of the closed goal door (i.e. the two goal doors were opened), leaving the choice to the mouse to enter either into the right or the left arm. The session was considered finished as soon as 14 free-choice trials had been performed in less than 10 min, and the mouse was removed from the maze. The time needed to reach these 14 “free-choices” was recorded.
The percent of spontaneous alternations was calculated as number of spontaneous alternations divided by the number of free-choice trials, an index of spatial short-term working memory. The apparatus was cleaned between each animal using alcohol (70%). Urine and feces were removed from the maze. During the trials, animal handling and the visibility of the operator were minimized as much as possible. Animals were tested in a random and blind manner.

Where “and” joins values, the source holds several entries; their conditions need not be identical. Identical values can stand only once. Positions of bridges follow the written chain, without caps; N, C: chain ends. No end group written: not given here.

As to “W-S-G-W-S-S-C-S-R-S-C-G [NX218] (WSGWSSCSRSCG; disulfide 7-11 (inferred))”, the “GluN2A level in cortical samples” value with GluN2A is 116.46 % of control. Also, the “Spontaneous alternations in T-maze” value in assay [1] (PCP + 5 mg/kg i.p. on D12, D13 and D14 (48 h, 24 h and 2 h before trial), n=10) was 62% and 62.13%; in assay [1] (PCP + 5 mg/kg i.p. on D13 (24 h before trial), n=9), 35% and 34.92%; in assay [1] (PCP + 5 mg/kg i.p. on D14 (2 h before trial), n=10), 53% and 52.87%.
